Data taken from BindingDB's records for doi:10.1074/jbc.272.51.31949 (Schering-Plough Research Institute, 1997).
Where a SMILES comes first, the peptide text is derived from it. [ ]: non-standard residue; d: D form.

How the values were obtained:
Galanin receptor type 3 = biological target: T1, Galanin receptor type 3 (Rattus norvegicus, UniProt O88626)
T1 sequence (O88626 whole entry): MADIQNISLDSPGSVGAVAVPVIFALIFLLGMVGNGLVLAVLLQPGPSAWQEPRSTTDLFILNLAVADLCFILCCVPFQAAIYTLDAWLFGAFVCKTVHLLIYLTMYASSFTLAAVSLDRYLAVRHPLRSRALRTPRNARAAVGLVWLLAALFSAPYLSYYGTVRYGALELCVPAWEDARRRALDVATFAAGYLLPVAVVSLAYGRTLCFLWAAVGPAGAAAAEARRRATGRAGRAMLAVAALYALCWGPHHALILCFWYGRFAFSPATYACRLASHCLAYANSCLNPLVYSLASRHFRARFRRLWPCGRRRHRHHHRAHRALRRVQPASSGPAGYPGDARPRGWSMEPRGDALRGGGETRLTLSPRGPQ

Galanin receptor type 2 = biological target: T2, Galanin receptor type 2 (Rattus norvegicus, UniProt O08726)
T2 sequence (O08726 whole entry): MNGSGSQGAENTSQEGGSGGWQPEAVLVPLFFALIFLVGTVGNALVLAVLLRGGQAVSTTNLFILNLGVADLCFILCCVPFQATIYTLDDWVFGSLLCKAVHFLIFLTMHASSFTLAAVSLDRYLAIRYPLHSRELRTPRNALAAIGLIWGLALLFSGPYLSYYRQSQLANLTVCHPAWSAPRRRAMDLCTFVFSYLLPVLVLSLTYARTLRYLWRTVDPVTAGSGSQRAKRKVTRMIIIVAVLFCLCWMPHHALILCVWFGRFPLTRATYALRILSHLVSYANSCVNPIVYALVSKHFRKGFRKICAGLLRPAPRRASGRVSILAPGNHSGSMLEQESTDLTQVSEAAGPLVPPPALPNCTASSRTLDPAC

| Molecule | Ki (Galanin receptor type 3) | Ki (Galanin receptor type 2) |
| --- | --- | --- |
| CC(C)C[C@H](NC(=O)[C@H](CC(C)C)NC(=O)[C@H](Cc1ccc(O)cc1)NC(=O)CNC(=O)[C@H](C)NC(=O)[C@H](CO)NC(=O)[C@H](CC(N)=O)NC(=O)[C@H](CC(C)C)NC(=O)[C@@H](NC(=O)[C@H](Cc1c[nH]c2ccccc12)NC(=O)CN)[C@@H](C)O)C(=O)NCC(=O)N1CCC[C@H]1C(=O)N1CCC[C@H]1C(=O)N1CCC[C@H]1C(=O)NCC(=O)N[C@@H](Cc1ccccc1)C(=O)N[C@@H](CO)C(=O)N1CCC[C@H]1C(=O)N[C@@H](Cc1ccccc1)C(=O)N[C@@H](CCCN=C(N)N)C(N)=O | 7.5 nM |  |
| CCC(C)C(NC(=O)C(C)NC(=O)C(Cc1cnc[nH]1)NC(=O)C1CCCN1C(=O)CNC(=O)C(CC(C)C)NC(=O)C(CC(C)C)NC(=O)C(Cc1ccc(O)cc1)NC(=O)CNC(=O)C(C)NC(=O)C(CO)NC(=O)C(CC(N)=O)NC(=O)C(CC(C)C)NC(=O)C(NC(=O)C(Cc1c[nH]c2ccccc12)NC(=O)CN)C(C)O)C(=O)NC(CC(=O)O)C(=O)NC(CC(N)=O)C(=O)NC(Cc1cnc[nH]1)C(=O)NC(CCCN=C(N)N)C(=O)NC(CO)C(=O)NC(Cc1ccccc1)C(=O)NC(CO)C(=O)NC(CC(=O)O)C(=O)NC(CCCCN)C(=O)NC(Cc1cnc[nH]1)C(=O)NCC(=O)NC(CC(C)C)C(=O)NC(C(=O)NCC(N)=O)C(C)O (stereo unspecified) [CAS_132699-74-2] | > 1000 nM |  |
| CC(C)C[C@H](NC(=O)[C@H](CC(C)C)NC(=O)[C@@H](Cc1c[nH]c2ccccc12)NC(=O)[C@H](Cc1ccccc1)NC(=O)[C@@H](Cc1c[nH]c2ccccc12)NC(=O)[C@H](CCC(N)=O)NC(=O)[C@H](CCC(N)=O)NC(=O)[C@@H]1CCCN1C(=O)[C@H](CCCCN)NC(=O)[C@@H]1CCCN1C(=O)[C@@H](CCCNC(=N)N)NC(=O)[C@@H]1CCCN1C(=O)CNC(=O)[C@H](CC(C)C)NC(=O)[C@H](CC(C)C)NC(=O)[C@H](Cc1ccc(O)cc1)NC(=O)CNC(=O)[C@H](C)NC(=O)[C@H](CO)NC(=O)[C@H](CC(N)=O)NC(=O)[C@H](CC(C)C)NC(=O)[C@@H](NC(=O)[C@H](Cc1c[nH]c2ccccc12)NC(=O)CN)[C@@H](C)O)C(N)=O [Gal(1-13)-Std I] (H-GWTLNSAGYLLGP[dR]PKPQQ[dW]F[dW]LL-NH2) | 0.75 nM |  |
| CC(C)C[C@H](NC(=O)[C@H](CC(C)C)NC(=O)[C@@H](Cc1c[nH]c2ccccc12)NC(=O)[C@@H](Cc1c[nH]c2ccccc12)NC(=O)[C@H](C)NC(=O)[C@H](NC(=O)[C@H](CC(N)=O)NC(=O)[C@H](CC(C)C)NC(=O)[C@@H](NC(=O)[C@H](Cc1c[nH]c2ccccc12)NC(=O)CN)[C@@H](C)O)[C@H](C)O)C(=O)NCC(=O)N1CCC[C@H]1C(=O)N[C@@H](Cc1cnc[nH]1)C(=O)N[C@@H](C)CO [Gal-(1-15)-ol,[d-Thr6,d-Trp8,9]] | 1000 nM |  |
| CC(C)C[C@H](NC(=O)[C@H](CC(C)C)NC(=O)[C@H](Cc1ccc(O)cc1)NC(=O)[C@@H](Cc1c[nH]c2ccccc12)NC(=O)[C@H](C)NC(=O)[C@H](C)NC(=O)[C@H](CC(N)=O)NC(=O)[C@H](CC(C)C)NC(=O)[C@@H](NC(=O)[C@H](Cc1c[nH]c2ccccc12)NC(=O)CN)[C@@H](C)O)C(=O)NCC(=O)N1CCC[C@H]1C(=O)N[C@@H](Cc1cnc[nH]1)C(=O)N[C@@H](C)CO [Galanin (1-15)-ol,[Ala6,D-trp8]] | 17.9 nM |  |
| CC[C@H](C)[C@H](NC(=O)[C@H](C)NC(=O)[C@H](Cc1c[nH]cn1)NC(=O)[C@@H]1CCCN1C(=O)CNC(=O)[C@H](CC(C)C)NC(=O)[C@H](CC(C)C)NC(=O)[C@H](Cc1ccc(O)cc1)NC(=O)CNC(=O)[C@H](C)NC(=O)[C@H](CO)NC(=O)[C@H](CC(N)=O)NC(=O)[C@H](CC(C)C)NC(=O)[C@@H](N)[C@@H](C)O)C(=O)N[C@@H](CC(=O)O)C(=O)N[C@@H](CC(N)=O)C(=O)N[C@@H](Cc1c[nH]cn1)C(=O)N[C@@H](CCCNC(=N)N)C(=O)N[C@@H](CO)C(=O)N[C@@H](Cc1ccccc1)C(=O)N[C@@H](CO)C(=O)N[C@@H](CC(=O)O)C(=O)N[C@@H](CCCCN)C(=O)N[C@@H](Cc1c[nH]cn1)C(=O)NCC(=O)N[C@@H](CC(C)C)C(=O)N[C@H](C(N)=O)[C@@H](C)O [Galanin (3-29), rat] | 1000 nM |  |
| CC[C@H](C)[C@H](NC(=O)[C@H](C)NC(=O)[C@H](Cc1c[nH]cn1)NC(=O)[C@@H]1CCCN1C(=O)CNC(=O)[C@H](CC(C)C)NC(=O)[C@H](CC(C)C)NC(=O)[C@H](Cc1ccc(O)cc1)NC(=O)CNC(=O)[C@H](C)NC(=O)[C@H](CO)NC(=O)[C@H](CC(N)=O)NC(=O)[C@H](CC(C)C)NC(=O)[C@@H](NC(=O)[C@@H](N)Cc1c[nH]c2ccccc12)[C@@H](C)O)C(=O)N[C@@H](CC(=O)O)C(=O)N[C@@H](CC(N)=O)C(=O)N[C@@H](Cc1c[nH]cn1)C(=O)N[C@@H](CCCNC(=N)N)C(=O)N[C@@H](CO)C(=O)N[C@@H](Cc1ccccc1)C(=O)N[C@@H](CO)C(=O)N[C@@H](CC(=O)O)C(=O)N[C@@H](CCCCN)C(=O)N[C@@H](Cc1c[nH]cn1)C(=O)NCC(=O)N[C@@H](CC(C)C)C(=O)N[C@H](C(N)=O)[C@@H](C)O [Galanin Porcine 2-29] | 12.6 nM | 1.92 nM |
| CC[C@H](C)[C@H](NC(=O)[C@H](C)NC(=O)[C@H](Cc1cnc[nH]1)NC(=O)[C@@H]1CCCN1C(=O)CNC(=O)[C@H](CC(C)C)NC(=O)[C@H](CC(C)C)NC(=O)[C@H](Cc1ccc(O)cc1)NC(=O)CNC(=O)[C@H](C)NC(=O)[C@H](CO)NC(=O)[C@H](CC(N)=O)NC(=O)[C@H](CC(C)C)NC(=O)[C@@H](NC(=O)[C@H](Cc1c[nH]c2ccccc12)NC(=O)CN)[C@@H](C)O)C(=O)N[C@@H](CC(=O)O)C(=O)N[C@@H](CC(N)=O)C(=O)N[C@@H](Cc1cnc[nH]1)C(N)=O [Galanin rat] | 6.25 nM | 4.7 nM |
| H-ELEPEDEARPGGFDRLQSQDKAIRTIMEFLAFLHLKEAGAL-NH2 [GMAP (1-41)] | 1000 nM |  |
| H-GWTLNSAGYLLGPPPALALA-NH2 [M40] | 54 nM | 2.88 nM |
| H-LLGPHAIDNHRSFSDKHGLT-NH2 [Galanin (10-29), rat] | 1000 nM |  |
| H-LPGLPSAASSEDAGQS-NH2 [CAS_125455-59-6] | > 1000 nM | 1000 nM |
